Where two headings read alike, the source gives them in different places.
System: HSP70+L. infantum amastigotes
Assay: ex vivo splenic explant culture of infrared HSP70+L. infantum-infected BALB/c mice, infrared fluorescence readout (384-well)
Format: cell-based
Conditions: Leishmania infantum
Text: Several parameters were included in the development of the explant culture. i) Parasite infection rate is not equal in all animals from the same batch, thus in order to normalize the ex vivo culture, only spleens with weights ≥ 0.7 g were selected to prepare the ex vivo explants. ii) The starting cell density was adjusted in terms of fluorescence emission in a wide range of arbitrary units (0.25, 0.5, 1.0, and 2.0 x 10^5 AU). Since we intend to evaluate the drug inhibition in ex vivo cultures for at least 4 days, the initial number of AU that matched this condition was chosen. iii) Discrimination between drug-treated and untreated control cells was assessed by adding amphotericin B (AmpB) to the explants cultures. iv) To prevent the edge effect caused by evaporation from outer wells in assays with multi-day incubations, the top and bottom rows as well as the first and last columns were filled with ddH2O. In addition, the positive and negative controls were symmetrically distributed through the columns.
A total of 298 compounds belonged to three distinct collections including i) indenoisoquinolines obtained from Dr. Mark S. Cushman, Department of Medicinal Chemistry and Molecular Pharmacology (Purdue University, Indiana, USA.); ii) podophylotoxin and quinones were a kindly gift from Dr. Arturo San Feliciano, Deparment of Química Farmacéutica (Universidad de Salamanca, Spain) and iii) carbolins obtained from Dr. Sankaran Murugeshan, Department of Pharmacy, (Birla Institute of Technology & Science, Pilani, India). Stock solutions consisted of test compound at a concentration of 200 μM in 20% DMSO. The 200 μM master plates were further diluted by transferring aliquots of 5 μl into black 384-well plates with clear bottom containing 45 μl of culture medium. The final concentration of DMSO in both assay and control wells not exceeded 1% (v/v). […] The plates were incubated at 37 °C and 5% CO2 and at 0, 24, 48 and 72 h the infrared signal was recorded using the Odyssey infrared system (LI-COR, USA). […]
The antileishmanial effect of the compounds was calculated as the percentage inhibition in relation to AmpB and DMSO as follows: (mean of 1%DMSO–Experimental Value) / (mean of 1%DMSO–mean of AmpBEC100) x 100. […] The quality of the assay was given by Z’ factor that was calculated as 1 –[(3SD positive controls + 3SD negative controls) / (mean of the positive controls–mean of the negative controls)]. […]
Firstly, we checked the fluorescence dynamic range in which we could assure the effective and quantifiable replication of intracellular parasites inside macrophages in the absence of active drug over the course of the ex vivo culture. […] For this purpose, we fixed the fluorescence level per well, instead of adjusting the number of cells. […]

Work on `C[C@@H]1[C@H](O)[C@@H](C)/C=C/C=C/C=C/C=C/C=C/C=C/C=C/[C@H](O[C@@H]2O[C@H](C)[C@@H](O)[C@H](N)[C@@H]2O)C[C@@H]2O[C@](O)(C[C@@H](O)C[C@@H](O)[C@H](O)CC[C@@H](O)C[C@@H](O)CC(=O)O[C@H]1C)C[C@H](O)[C@H]2C(=O)O` [AmpB, amphotericin B] yielded an IC50 (72 h, across all starting cell densities (1.0, 2.0 and 4.0 x10^5 AU), read-out: IC50 values at 72 h) of 270 to 380 nM, an IC50 (starting cell density High: 4x10^5 AU, ten 2-fold dilutions from 10 μM, Fig 4E) of 310 ± 50 nM and an IC50 (starting cell density Low: 1x10^5 AU, ten 2-fold dilutions from 10 μM, Fig 4C) of 380 ± 60 nM. For the same molecule, the IC50 (starting cell density Medium: 2x10^5 AU, ten 2-fold dilutions from 10 μM, Fig 4D) was 270 ± 40 nM.
